Legend:
[1] = system: Pseudoalteromonas sp. D41; experiment: Antibiofilm activity against Pseudoalteromonas sp. D41 assessed as inhibition of bacterial adhesion after 15 hrs by fluorescence assay; format: functional; settings: Pseudoalteromonas sp. D41, 15 h
Paracoccus sp. [2] = experiment: Antibiofilm activity against Paracoccus sp. 4M6 assessed as inhibition of bacterial adhesion after 15 hrs by fluorescence assay; format: functional; settings: Paracoccus sp. (in: a-proteobacteria), 4M6, 15 h
[3] = system: Pseudoalteromonas sp. D41; experiment: Antibiofilm activity against Pseudoalteromonas sp. D41 assessed as inhibition of bacterial adhesion at 200 uM after 15 hrs by fluorescence assay relative to control; format: functional; settings: Pseudoalteromonas sp. D41, 15 h
Paracoccus sp. [4] = experiment: Antibiofilm activity against Paracoccus sp. 4M6 assessed as inhibition of bacterial adhesion at 200 uM after 15 hrs by fluorescence assay; format: functional; settings: Paracoccus sp. (in: a-proteobacteria), 4M6, 15 h; values are per cent of control
[5] = Antibacterial activity against Pseudoalteromonas sp. D41 assessed as growth inhibition at 100 uM up to 6 hrs by viability assay; settings: pseudoalteromonas sp. d41, 6 h
[6] = Antibacterial activity against Paracoccus sp. 4M6 assessed as growth inhibition at 100 uM up to 6 hrs by viability assay
Pseudomonas aeruginosa [7] = experiment: Antibiofilm activity against Pseudomonas aeruginosa assessed as dispersion of bacterial biofilm; format: functional, organism-based
Pseudomonas aeruginosa [8] = experiment: Antibiofilm activity against Pseudomonas aeruginosa assessed as modulation of biofilm formation; format: functional, organism-based
[9] = Antibacterial activity against Paracoccus sp. 4M6 assessed as growth inhibition at 10 uM up to 6 hrs by viability assay
[10] = Antibacterial activity against Pseudoalteromonas sp. D41 assessed as growth inhibition at 10 uM up to 6 hrs by viability assay; settings: pseudoalteromonas sp. d41, 6 h

SMILES	EC50 [1] [µM]	EC50 (Paracoccus sp. [2]) [µM]	other results
COc1ccc(-c2cn(Cc3cccc(OC)c3)nn2)cc1	> 200	> 200	
COc1cccc(Cn2nncc2-c2ccccc2)c1	> 200	> 200	inhibition at 200 µM [3]: 50.5%; response, % of control at 200 µM (Paracoccus sp. [4]): 142%
COc1ccc(Cn2nncc2-c2ccccc2)cc1	> 200	> 200	inhibition at 200 µM [3]: 70.9%; response, % of control at 200 µM (Paracoccus sp. [4]): 127%
COc1cccc(Cn2nncc2Cc2ccccc2)c1	> 200	> 200	inhibition at 200 µM [3]: 58.5%; response, % of control at 200 µM (Paracoccus sp. [4]): 149%
COc1ccc(Cn2nncc2Cc2ccccc2)cc1	> 200	199	inhibition at 200 µM [3]: 55.5%
COc1cccc(Cn2nncc2CCc2ccccc2)c1	> 200	> 200	inhibition at 200 µM [3]: 86.4%; response, % of control at 200 µM (Paracoccus sp. [4]): 65.5%
COc1ccc(Cn2nncc2CCc2ccccc2)cc1	> 200	> 200	inhibition at 200 µM [3]: 78.5%; response, % of control at 200 µM (Paracoccus sp. [4]): 97.8%
COc1ccc(Cn2cc(-c3cc(OC)cc(OC)c3)nn2)cc1	62	199	growth inhibition (GI) [5]: Non-toxic
Oc1ccc(-c2cnnn2Cc2cccc(O)c2)cc1	> 200	> 200	
COc1ccc(-c2cnnn2Cc2cccc(OC)c2)cc1	172	> 200	
COc1cccc(Cn2nncc2-c2cc(OC)cc(OC)c2)c1	48.6	> 200	growth inhibition (GI) [5]: Non-toxic
COc1ccc(Cn2nncc2-c2ccc(OC)cc2)cc1	> 200	> 200	
COc1ccc(Cn2nncc2-c2cc(OC)cc(OC)c2)cc1	37.2	90.3	growth inhibition (GI) [5]: Non-toxic; growth inhibition (GI) [6]: Non-toxic
COc1cccc(Cn2cc(-c3cc(OC)cc(OC)c3)nn2)c1	34.8	> 200	growth inhibition (GI) [5]: Non-toxic
COc1ccc(Cn2cc(-c3ccc(OC)cc3)nn2)cc1	> 200	> 200	
Oc1cccc(Cn2nncc2-c2cc(O)cc(O)c2)c1	> 200	> 200	
Oc1ccc(Cn2nncc2-c2ccc(O)cc2)cc1	> 200	> 200	
Oc1ccc(Cn2nncc2-c2cc(O)cc(O)c2)cc1	> 200	> 200	
Oc1ccc(-c2cn(Cc3cccc(O)c3)nn2)cc1	129	41.2	growth inhibition (GI) [6]: Non-toxic
Oc1cccc(Cn2cc(-c3cc(O)cc(O)c3)nn2)c1	> 200	> 200	
Oc1ccc(Cn2cc(-c3ccc(O)cc3)nn2)cc1	> 200	131	
Oc1ccc(Cn2cc(-c3cc(O)cc(O)c3)nn2)cc1	> 200	181	
COc1ccc(Cc2[nH]c(=N)n(C)c2Cc2ccc(O)cc2)cc1 [NAAMINE A]			EC50 (Pseudomonas aeruginosa [7]): 436 µM; EC50 (Pseudomonas aeruginosa [8]): 436 µM
CCn1cc(C(=O)O)c(=O)c2cc(F)c(N3CCNCC3)cc21 [NORFLOXACIN]			growth inhibition (GI) [9]: Toxic; growth inhibition (GI) [10]: Toxic

Reference: ChEMBL document CHEMBL1909550, “Designing 2-aminoimidazole alkaloids analogs with anti-biofilm activities: structure-activities relationships of polysubstituted triazoles” (Bioorg Med Chem Lett, 2011)
